Molecules are shown by their SMILES.

Holding throughout (format): functional
What all share (details): time 6.5 hrs, read-out: Activity

Assay [1] relates to SH-SY5Y. Put plainly: Neuroprotective activity against NMDA-induced cell injury in human SH-SY5Y cells assessed as cell viability at 0.05 uM incubated for 6 hrs followed by NMDA treatment for 0.5 hrs and subsequent replacement of fresh medium without compounds by MTT assay relative to control.
Assay [2] has as its system SH-SY5Y. In words: Neuroprotective activity against NMDA-induced cell injury in human SH-SY5Y cells assessed as cell viability at 5 uM incubated for 6 hrs followed by NMDA treatment for 0.5 hrs and subsequent replacement of fresh medium without compounds by MTT assay relative to control.
The test system of assay [3] is SH-SY5Y. In words: Neuroprotective activity against NMDA-induced cell injury in human SH-SY5Y cells assessed as cell viability at 0.5 uM incubated for 6 hrs followed by NMDA treatment for 0.5 hrs and subsequent replacement of fresh medium without compounds by MTT assay relative to control.

As to `O=C(/C=C/c1ccc(O)cc1)NCCc1cn(Cc2ccccc2Br)c2ccccc12`, the viability at 0.05 µM in the assay with SH-SY5Y [1] came out at 45.1%. In addition, the viability at 5 µM in the assay on SH-SY5Y [2] was 36.7%. Moreover, the viability at 0.5 µM in the assay with SH-SY5Y [3] was 32.3%.

On to `O=C(/C=C/c1ccc(O)c(O)c1)NCCc1cn(Cc2ccccc2)c2ccccc12`, for which, in the assay on SH-SY5Y [1], the viability at 0.05 µM is 34.8%. Moreover, the viability at 5 µM in the assay with SH-SY5Y [2] turned out to be 48.2%. In addition, in the assay with SH-SY5Y [3], the viability at 0.5 µM worked out at 47.1%.

`O=C(/C=C/c1ccc(O)cc1)NCCc1cn(Cc2ccc(Br)cc2)c2ccccc12`: the viability at 0.05 µM in the assay on SH-SY5Y [1] amounted to 42.6%. Also, the viability at 5 µM in the assay on SH-SY5Y [2] was found to be 25.5%. The viability at 0.5 µM in the assay on SH-SY5Y [3] was 36.1%.

Regarding `O=C(/C=C/c1ccc(O)cc1)NCCc1cn(CCCc2ccccc2)c2ccccc12`, the viability at 0.05 µM in the assay on SH-SY5Y [1] came out at 20.1%. Also, the viability at 5 µM in the assay with SH-SY5Y [2] amounted to 12.5%. For the same molecule, the viability at 0.5 µM in the assay on SH-SY5Y [3] was 19.3%.

Turning to `O=C(/C=C/c1ccc(O)cc1)NCCc1cn(Cc2cccc(Cl)c2)c2ccccc12`, in the assay on SH-SY5Y [1], the viability at 0.05 µM stood at 32.2%. Further, in the assay on SH-SY5Y [2], the viability at 5 µM is 25.2%. Moreover, the viability at 0.5 µM in the assay on SH-SY5Y [3] stood at 38.8%.

As to `O=C(NCCc1cn(Cc2ccccc2)c2ccccc12)c1ccc(O)c(O)c1`, in the assay on SH-SY5Y [1], the viability at 0.05 µM stood at 29.4%. For the same molecule, the viability at 5 µM in the assay on SH-SY5Y [2] amounted to 44.9%. Also, the viability at 0.5 µM with SH-SY5Y [3] was found to be 32.1%.

For `CCn1cc(CCNC(=O)/C=C/c2ccc(O)cc2)c2ccccc21`, the viability at 0.05 µM with SH-SY5Y [1] came out at 19.9%. For the same molecule, the viability at 5 µM in the assay with SH-SY5Y [2] turned out to be 19.9%. Also, in the assay on SH-SY5Y [3], the viability at 0.5 µM is 22.4%.

With `O=C(/C=C/c1ccc(O)cc1)NCCc1cn(CC2CC2)c2ccccc12`, the viability at 0.05 µM in the assay with SH-SY5Y [1] worked out at 19.9%. Further, the viability at 5 µM in the assay with SH-SY5Y [2] was found to be 9.7%. In the assay with SH-SY5Y [3], the viability at 0.5 µM was determined as 18.6%.

In the case of `O=C(/C=C/c1ccc(O)cc1)NCCc1cn(Cc2ccccc2)c2ccccc12`, in the assay with SH-SY5Y [1], the viability at 0.05 µM worked out at 33%. In addition, the viability at 5 µM with SH-SY5Y [2] is 52.8%. Besides, in the assay on SH-SY5Y [3], the viability at 0.5 µM is 42.8%.

Take `O=C(CCc1ccc(O)cc1)NCCc1cn(Cc2ccccc2)c2ccccc12`: the viability at 0.05 µM with SH-SY5Y [1] was found to be 45.3%. Further, the viability at 5 µM in the assay on SH-SY5Y [2] stood at 52.1%. Further, the viability at 0.5 µM in the assay on SH-SY5Y [3] was 50.9%.

On to `O=C(Cc1ccc(O)cc1)NCCc1cn(Cc2ccccc2)c2ccccc12`, for which, in the assay on SH-SY5Y [1], the viability at 0.05 µM came out at 21.1%. The viability at 5 µM in the assay with SH-SY5Y [2] was determined as 41%. In the assay on SH-SY5Y [3], the viability at 0.5 µM stood at 42.2%.

Take `O=C(/C=C/c1ccc(O)cc1)NCCc1cn(CCc2ccccc2)c2ccccc12`: the viability at 0.05 µM in the assay with SH-SY5Y [1] was 25.9%. In the assay on SH-SY5Y [2], the viability at 5 µM stood at 8%. For the same molecule, the viability at 0.5 µM in the assay with SH-SY5Y [3] was found to be 10.1%.

Consider `Cc1ccc(Cn2cc(CCNC(=O)/C=C/c3ccc(O)cc3)c3ccccc32)cc1`, for which the viability at 0.05 µM in the assay on SH-SY5Y [1] was found to be 19.4%. Further, the viability at 5 µM with SH-SY5Y [2] came to 21%. In addition, the viability at 0.5 µM in the assay with SH-SY5Y [3] is 28.4%.

The record behind these values is ChEMBL document CHEMBL5360573, “Discovery of novel tryptamine derivatives as GluN2B subunit-containing NMDA receptor antagonists via pharmacophore-merging strategy with orally available therapeutic effect of cerebral ischemia” (Eur J Med Chem, 2023).
